Entries after “also recorded” stand apart in the source; their conditions may differ.
How the values were obtained:
3T3-L1 preadipocytes = assay: MTT lipid-lowering (adipocyte-degrading) activity analysis on 3T3-L1 preadipocyte line; assay type: cell-based; details: for adipocyte-degrading (adipocyte lysis) activity compared with positive controls H-LEP and Ros: preadipocytes stage, early differentiation stage D0-D2 and mature adipocyte stage D9, PEP-E 10^−6M, Ros 0.5 μM
Method: Lipid degradation activity of the synthesized leptin active peptide having CD-loop and helix E region mutations is analyzed on a cellular level by taking a 3T3-L1 preadipocyte line as a model. Specific operations are as follows:
a. leptin active peptide having CD-loop and helix E region mutations (PEP-E): diluted to 10^−3M with purified water and preserved at −20 degree C. for later use. After an experiment is started, working concentrations have 3 concentration gradients, that is, 10^−6M, 10−9M and 10^−11M;
b. positive control 1: H-LEP recombinant human-derived leptin protein (10221-HNAE, Beijing Sino Biological Inc.), diluted to 10^−6M with purified water and preserved at −20 degree C. for later use. After an experiment is started, the working concentration is 10^−9M.
c. positive control 2: Ros rosiglitazone, R2408, Sigma), diluted to a stock solution with a concentration of 2518 μM with DMSO and preserved at −20 degree C. for later use. After an experiment is started, the stock solution is diluted to a working solution of 0.5 μM with cell culture fluid.
d. negative control (Control): equivalent quantity of PBS
(1) inoculating 3T3-L1 preadipocytes in coming cell bind 96-well plates (totally inoculated with 3 plates, respectively plate a, plate b and plate c), wherein the inoculation density is 4500 cells/well; and marking, and standing and culturing at 37 degree C. in a 5% CO2 incubator. Each sample of each plate is operated repeatedly for 3 times, and the whole experiment is repeated for 3 times;
(2) continuously culturing for 48 hours after the cells are merged to 100% (enabling the cells to exit from a growth cycle, and starting induced differentiation.); and
i, taking out the plate a, respectively adding different amounts of leptin active peptide having CD-loop and helix E region mutations (PEP-E) to enable the working concentrations to be respectively 3 concentration gradients, that is, 10^−6M, 10^−9M and […], setting 2 positive controls, a negative control (PBS) and a blank control (3 repeated holes are set for each sample), and continuously standing and culturing at 37 degree C. in the 5% CO2 incubator.
ii, when culturing to 45 hours (that is, 3 hours before the end of drug treatment), taking out the plate a, and measuring MTT (preadipocytes). Specific operations: adding 20 μL of 5 mg/mL of MTT solution into each well, continuously standing and culturing at 37 degree C. in the 5% CO2 incubator for 3 hours, sucking and discarding the culture solution in the wells, adding 150 μL of DMSO into each well, horizontally shaking for 10 min, detecting a light absorption value at 492 nm by a microplate reader, and drawing a growth curve. […]
ii, when culturing to 45 hours (that is, 3 hours before the end of drug treatment), taking out the plate b, and measuring MTT (at the early differentiation stage, D0-D2). Specific operations: adding 20 μL of 5 mg/mL of MTT solution into each well; continuously standing and culturing at 37 degree C. in the 5% CO2 incubator for 3 hours, sucking and discarding the culture solution in the wells; adding 150 μL of DMSO into each well, horizontally shaking for 10 min, detecting a light absorption value at 492 nm by a microplate reader, and drawing a growth curve; […]

[1] = cited from earlier work

Substance: H-LEP: recombinant human-derived leptin protein (10221-HNAE, Beijing Sino Biological Inc.) [reference compound]
- adipocyte lysis activity of positive control vs. negative control (3T3-L1 preadipocytes; H-LEP 10^−9M, Ros 0.5 μM vs. PBS, P<0.05): obviously better than that of the negative control

Substance: SCHLHWAPGLETLDSGVQEASGY (An amino acid sequence of the leptin active peptide having CD-loop and helix E region mutations) [PEP-E]
- dependence of lipid-lowering activity on concentration and cell differentiation period (3T3-L1 preadipocytes; 10^−6M, 10^−9M, 10^−11M, preadipocytes, D0-D2, D9): obvious concentration dependence and dependence in a cell differentiation period
- adipocyte-degrading (adipocyte lysis) activity compared with positive controls H-LEP and Ros (3T3-L1 preadipocytes; 10^−9M, 10^−11M, H-LEP 10^−9M, P<0.05): obviously better than that of the H-LEP; also recorded: obviously better than that of the Ros
- adipocyte-degrading (adipocyte lysis) activity compared with positive controls H-LEP and Ros (3T3-L1 preadipocytes; 10^−9M, 10^−11M, H-LEP 10^−9M, P<0.05, listed as leptin active peptide having CD-loop and helix E region mutations): obviously better than that of positive control-human-derived leptin protein (H-LEP) and a commercially available drug rosiglitazone (Ros,)
- lipid-lowering activity: stage and concentration of optimal effect (3T3-L1 preadipocytes; three stages, three concentrations compared): optimal effect at the D0-D2 stage when the concentration is 10^−6M

Substance: wild type human-derived leptin protein: leptin protein given to obese patients in the first human experiment
- weight loss effect in obese patients ([1]; 73 tested obese patients): most of the patients do not have an obvious weight loss effect
- weight loss ([1]; only 2 of 73 patients, within 24 weeks): 35 pounds

From patent publication US10342854B2, “Leptin active peptide having cd loop and E helix region mutations, coding gene thereof, and application thereof” (SHANGHAI YUANXIN BIOCHEMICAL SCIENCE AND TECHNOLOGY CO. LTD., priority 2015, dated 2019)
